Reference: paper PMC6297231 (Nature Communications, 2018)
Where two headings read alike, the source gives them in different places.

Columns and labels:
A253 = experiment: Cell viability assay; assay type: cell-based; settings: Homo sapiens, 24 h; A253 (Others); read-out: AZD5991 24h GI50
T47D = experiment: Cell viability assay; assay type: cell-based; settings: Homo sapiens, 24 h; T47D (Breast); read-out: AZD5991 24h GI50
SBC5 = experiment: Cell viability assay; assay type: cell-based; settings: Homo sapiens, SBC-5, 24 h; SBC5 (Lung); read-out: AZD5991 24h GI50
MOLP8 = experiment: Caspase-3/7 activation assay; assay type: cell-based; settings: Homo sapiens
H647 = experiment: Cell viability assay; assay type: cell-based; settings: Homo sapiens, NCI-H647, 24 h; H647 (Lung); read-out: AZD5991 24h GI50
NCI-H929 tumors = experiment: NCI-H929 subcutaneous xenograft efficacy; assay type: in vivo, mice; settings: single i.v. dose 100 mg kg^−1
Procedure: Female C.B.-17 SCID mice and female nude rats were purchased from Charles River Laboratories. […]. All xenograft studies were conducted at our Association for the Assessment and Accreditation of Laboratory Animal Care accredited facility in Waltham, MA in accordance with ethical regulations described in the guidelines established by the internal Institutional Animal Care and Use Committee. […]. In mice, drugs were dosed intravenously in a volume of 5 mL kg^-1 except for venetoclax that was dosed orally in a volume of 10 mL kg^-1. […]. Ten million MV4-11 cells were injected subcutaneously in the right flank of rats in a volume of 0.1 mL. Tumor volumes (measured by caliper), animal body weight, and tumor condition were recorded twice weekly for the duration of the study. The tumor volume was calculated using the formula: length (mm) × width (mm)^2/0.52. For efficacy studies, growth inhibition from the start of treatment was assessed by comparison of the differences in tumor volume between control and treated groups. Statistical significance was evaluated using non-parametric, unpaired, two-tailed t-test. […] For pharmacokinetic analysis, plasma samples were precipitated and diluted with acetonitrile containing internal standard and analyzed by LC–MS/MS versus a calibration curve of known concentrations.

Nomo1 = experiment: Caspase-3/7 activation assay; assay type: cell-based; settings: Homo sapiens, NOMO-1, 6 h
HBL1 = experiment: Cell viability assay; assay type: cell-based; settings: 24 h; HBL1 (NHL); read-out: AZD5991 24h GI50
EOL1 = experiment: Cell viability assay; assay type: cell-based; settings: Homo sapiens, 24 h; EOL1 (AML); read-out: AZD5991 24h GI50
CMK = experiment: Cell viability assay; assay type: cell-based; settings: Homo sapiens, 24 h; CMK (AML); read-out: AZD5991 24h GI50
ME1 = experiment: Cell viability assay; assay type: cell-based; settings: ME-1, 24 h; ME1 (AML); read-out: AZD5991 24h GI50
MINO [1] = experiment: Cell viability assay; assay type: cell-based; settings: Homo sapiens, 24 h; MINO (NHL); read-out: AZD5991 24h GI50
EJM = experiment: cells; settings: Homo sapiens, 6 h, read-out: AZD5991 6h EC50
Procedure: (§1) Cells were plated at 3000 cells/well in 384-well white plates in corresponding cell growth media. […] Caspase-3/7 activation was subsequently determined using a Caspase-Glo 3/7 Reagent (Promega) and viability was assayed using the CellTiter-Glo Reagent (Promega) as described in manufacturer’s instructions. Dose–response curves for caspase-3/7 activation and viability were plotted and analyzed (including EC50 and GI50 determination) using GraphPad Prism. Percentage of caspase activation was calculated against the maximum caspase activation value (100%) obtained with a proprietary cell kill control.

MAVER1 = experiment: cells; settings: Homo sapiens, Maver1, 6 h, read-out: AZD5991 6h EC50
Procedure: as §1

H1048 = experiment: cells; settings: Homo sapiens, NCI-H1048, 6 h, read-out: AZD5991 6h EC50
Procedure: as §1

Karpas620 = experiment: cells; settings: Karpas-620, 6 h, read-out: AZD5991 6h EC50
Procedure: as §1

H1395 = experiment: cells; settings: Homo sapiens, NCI-H1395, 6 h, read-out: AZD5991 6h EC50
Procedure: as §1

SKLU1 = experiment: cells; settings: Homo sapiens, SK-LU-1, 6 h, read-out: AZD5991 6h EC50
Procedure: as §1

MINO [2] = experiment: cells; settings: Homo sapiens, 6 h, read-out: AZD5991 6h EC50
Procedure: as §1

EVSAT = experiment: cells; settings: Homo sapiens, EVSA-T, 6 h, read-out: AZD5991 6h EC50
Procedure: as §1

Kasumi3 = experiment: cells; settings: Kasumi-3, 6 h, read-out: AZD5991 6h EC50
Procedure: as §1

VAL = experiment: Cell viability assay; assay type: cell-based; settings: 24 h; VAL (NHL); read-out: AZD5991 24h GI50
HCC1187 = experiment: Cell viability assay; assay type: cell-based; settings: Homo sapiens, 24 h; HCC1187 (Breast); read-out: AZD5991 24h GI50
RT4 = experiment: Cell viability assay; assay type: cell-based; settings: Homo sapiens, RT-4, 24 h; RT4 (Urology); read-out: AZD5991 24h GI50
ULA = experiment: Cell viability assay; assay type: cell-based; settings: 24 h; ULA (NHL); read-out: AZD5991 24h GI50

Structure (SMILES): Cc1c2c(nn1C)CSCc1cc(n(C)n1)CSc1cc(c3ccccc3c1)OCCCc1c(C(=O)O)n(C)c3c-2c(Cl)ccc13 (atropisomer, axis not shown; (Ra)) [(Ra)-7]
- GI50 (A253): > 30000 nM
- GI50 (T47D): > 30000 nM
- GI50 (SBC5): 541 nM
- EC50 (MOLP8; MOLP-8, 6 h, read-out: AZD5991 6h EC50, MOLP8 (MM), caspase 3/7 activation): 57 nM
- EC50 (MOLP8; MOLP-8, MOLP-8 cells, 0% serum, read-out: caspase-inducing activity EC50): 1 nM
- EC50 (MOLP8; MOLP-8, MOLP-8 cells, 2% serum, read-out: caspase-inducing activity EC50): 8 nM
- EC50 (MOLP8; MOLP-8, caspase activation, Mcl-1-dependent cell line, read-out: MOLP-8, EC50): 33 nM
- EC50 (MOLP8; MOLP-8, mean of log transformed data, read-out: MOLP-8 caspase pEC50 (converted)): 33.1 nM
- GI50 (H647): > 30000 nM
- mice with complete tumor regression (NCI-H929 tumors): four out of four
- EC50 (Nomo1; read-out: 6h caspase EC50, NOMO1, single agent): 32.5 nM
- EC50 (Nomo1; read-out: AZD5991 6h EC50, Nomo1 (AML), caspase 3/7 activation): 47 nM
- GI50 (HBL1): 8320 nM
- GI50 (EOL1): 12 nM
- GI50 (CMK): > 30000 nM
- GI50 (ME1): 220 nM
- GI50 (MINO [1]): 149 nM
- EC50 (EJM): 169 nM
- EC50 (MAVER1): 27800 nM
- EC50 (H1048): > 30000 nM
- EC50 (Karpas620): 122 nM
- EC50 (H1395): 15400 nM
- EC50 (SKLU1): > 30000 nM
- EC50 (MINO [2]): 1290 nM
- EC50 (EVSAT): 160 nM
- EC50 (Kasumi3): 882 nM
- GI50 (VAL): 102 nM
- GI50 (HCC1187): 233 nM
- GI50 (RT4): 2400 nM
- GI50 (ULA): 91 nM
